Drawing on ChEMBL document CHEMBL1151622, “Occurrence of gerrardine in Cassipourea guianensis” (1984), this text covers MIC for 1 compound.

In brackets after ≈: the same amount, converted by molar mass.

What all share (type): functional
One assay relates to Candida albicans. The experiment in a line: Antimicrobial activity against Candida albicans TA.
Assay [1] has as its system Escherichia coli. Nature of the assay: Antimicrobial activity against Escherichia coli 0-111 after 2 days. The conditions noted are these: 48 h.
The test system of another assay is Klebsiella pneumoniae. The experiment in a line: Antimicrobial activity against Klebsiella pneumoniae DA after 2 days. As to conditions: 48 h.
The test system of assay [2] is Escherichia coli. Nature of the assay: Antimicrobial activity against Escherichia coli NIHJ JC-2 after 2 days. As to conditions: 48 h.

As to `CN1[C@@H]([C@@H]2SSC[C@@H]2O)CC[C@@H]1[C@@H]1SSC[C@@H]1O` [GERRARDINE], the MIC (in general, the lowest concentration that inhibits growth of the organism) against Candida albicans came to 50 µg/mL (≈ 154 µM); in the assay on Escherichia coli [1], 100 µg/mL (≈ 307 µM); in the assay with Klebsiella pneumoniae, 100 µg/mL (≈ 307 µM); against Escherichia coli [2] it was 100 µg/mL (≈ 307 µM).
